Source: doi:10.1101/2025.11.03.686257v1 (bioRxiv, 2025)

Assays:
[1] = test system: Providencia stuartii; experiment: Antibiotic resistance characterization of clinical isolate; assay type: cell-based; details: University Hospital Pontchaillou
[2] = test system: RLEC-like S3 cells; experiment: Peptide-Dylight488 streptavidin cell binding assay by flow cytometry; assay type: cell-based, rat; details: peptide-Dylight488 streptavidin complexes, established line
[3] = test system: normal human hepatocytes in primary culture; experiment: as above; assay type: cell-based; details: peptide-Dylight488 streptavidin complexes
[4] = test system: Huh7 HCC cell line; experiment: as above; assay type: cell-based, human; details: peptide-Dylight488 streptavidin complexes
[5] = test system: Hepa1-6 HCC cell line; experiment: as above; assay type: cell-based, murine; details: peptide-Dylight488 streptavidin complexes
[6] = test system: hepatic stellar-like LX2 cells; experiment: as above; assay type: cell-based, human; details: peptide-Dylight488 streptavidin complexes
[7] = test system: HEK293T cells; experiment: as above; assay type: cell-based, human; details: peptide-Dylight488 streptavidin complexes
[8] = test system: HepG2 cells; experiment: as above; assay type: cell-based, human; details: peptide-Dylight488 streptavidin complexes
[9] = test system: HepaRG-SP cells; experiment: as above; assay type: cell-based, human; details: P11^Chol-Dylight488 streptavidin complexes
[10] = Solubility in aqueous solution; assay type: physicochemical; details: stock solutions prepared in PBS at 1mM
[11] = test system: bipotent progenitor HepaRG cells 3 days after plating; experiment: Peptide-Dylight488 streptavidin cell binding assay by flow cytometry; assay type: cell-based, human; details: P11^Chol-Dylight488 streptavidin complexes

| Compound | antibiotic resistance/sensitivity of the strain [1] | binding to cells [2] | binding to cells [3] | binding to cells [4] | binding to cells [5] | binding to cells [6] | also measured |
| --- | --- | --- | --- | --- | --- | --- | --- |
| CC1(C)S[C@@H]2[C@H](NC(=O)[C@H](N)c3ccccc3)C(=O)N2[C@H]1C(=O)O [ampicillin] | resistant | – | – | – | – | – | – |
| O=C(N[C@H](CO)[C@H](O)c1ccc([N+](=O)[O-])cc1)C(Cl)Cl [chloramphenicol] | sensitive | – | – | – | – | – | – |
| CC[C@H]1OC(=O)[C@H](C)[C@@H](O[C@H]2C[C@@](C)(OC)[C@@H](O)[C@H](C)O2)[C@H](C)[C@@H](O[C@@H]2O[C@H](C)C[C@H](N(C)C)[C@H]2O)[C@](C)(O)C[C@@H](C)C(=O)[C@H](C)[C@@H](O)[C@]1(C)O [erythromycin] | resistant | – | – | – | – | – | – |
| NC[C@H]1O[C@H](O[C@H]2[C@H](O)[C@@H](O[C@H]3O[C@H](CO)[C@@H](O)[C@H](N)[C@H]3O)[C@H](N)C[C@@H]2N)[C@H](O)[C@@H](O)[C@@H]1O [kanamycin] | sensitive | – | – | – | – | – | – |
| AFLNSNGLPTYSPKIS [Hel-Pyl] | – | bound | no binding | no binding | no binding | no binding | – |
| EYLNSILSYSPSYYWI [E-select] | – | – | – | – | – | – | binding to cells [7]: significant binding; binding to cells [8]: significant binding |
| GTLNNIPTY-YWGKGY [Provid-Stu] | – | bound | no binding | no binding | no binding | no binding | – |
| TFLNSVPTYSYWGGGS [P11^Chol] | – | bound | no binding | no binding | no binding | no binding | percentage of positive cells [9]: less than 1%; solubility in aqueous solution [10]: high solubility; increase in fluorescence intensity, HepaRG D3 versus HepaRG-SP cells [11]: 4 fold; percentage of positive cells ([11]; HepaRG D3): ~18% |
| amoxicillin + clavulanic acid | resistant | – | – | – | – | – | – |
| gentamycin | sensitive | – | – | – | – | – | – |
